{
  "source": "paper PMC6934184",
  "about": "“Selective DNA-PKcs inhibition extends the therapeutic index of localized radiotherapy and chemotherapy” (The Journal of Clinical Investigation, 2019)",
  "target": "T1, ABL1 (Homo sapiens, UniProt P00519)",
  "T1 construct": "purchased Thermo Fisher Scientific (Life Technologies) SelectScreen",
  "T1 sequence (P00519 whole entry)": "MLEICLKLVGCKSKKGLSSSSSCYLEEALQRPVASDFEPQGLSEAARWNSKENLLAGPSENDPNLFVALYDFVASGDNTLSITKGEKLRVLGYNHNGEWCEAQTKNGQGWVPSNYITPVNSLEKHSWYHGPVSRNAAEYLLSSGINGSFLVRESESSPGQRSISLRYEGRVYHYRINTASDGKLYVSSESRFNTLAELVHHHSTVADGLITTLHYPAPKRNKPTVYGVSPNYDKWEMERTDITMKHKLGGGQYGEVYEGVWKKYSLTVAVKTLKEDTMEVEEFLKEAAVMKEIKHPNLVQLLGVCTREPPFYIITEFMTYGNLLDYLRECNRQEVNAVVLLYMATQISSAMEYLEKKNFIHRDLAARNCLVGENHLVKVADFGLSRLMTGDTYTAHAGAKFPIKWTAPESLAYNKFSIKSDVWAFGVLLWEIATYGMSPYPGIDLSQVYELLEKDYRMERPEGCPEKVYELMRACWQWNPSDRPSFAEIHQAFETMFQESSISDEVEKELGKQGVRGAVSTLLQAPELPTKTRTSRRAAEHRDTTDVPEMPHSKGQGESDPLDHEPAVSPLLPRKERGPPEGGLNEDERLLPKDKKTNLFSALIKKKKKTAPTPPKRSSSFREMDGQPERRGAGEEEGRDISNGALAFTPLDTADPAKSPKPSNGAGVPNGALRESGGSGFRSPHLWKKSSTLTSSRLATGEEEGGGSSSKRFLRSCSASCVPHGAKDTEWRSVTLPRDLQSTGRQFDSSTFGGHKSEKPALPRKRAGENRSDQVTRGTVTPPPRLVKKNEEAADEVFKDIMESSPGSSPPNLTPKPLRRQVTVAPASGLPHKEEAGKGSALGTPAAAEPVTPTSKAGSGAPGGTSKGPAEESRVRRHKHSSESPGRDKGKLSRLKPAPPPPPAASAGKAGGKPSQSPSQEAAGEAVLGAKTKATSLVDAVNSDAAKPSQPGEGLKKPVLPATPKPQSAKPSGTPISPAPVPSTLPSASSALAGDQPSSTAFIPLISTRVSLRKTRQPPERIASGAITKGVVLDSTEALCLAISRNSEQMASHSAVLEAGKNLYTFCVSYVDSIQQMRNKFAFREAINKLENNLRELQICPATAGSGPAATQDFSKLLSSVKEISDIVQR",
  "experiment": "SelectScreen Z'LYTE",
  "assay_type": "biochemical",
  "outline": "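Compound tested in SelectScreen activity assays, Z'LYTE for CSF1R, CDK1/cyclin B and MAP2K6 and Adapta for CAMK1. ATP for CAMK1 was listed as 10, and Km app was used for CSF1R. Results are expressed in percent.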",
  "data": [
    {"smiles": "CN(C(=O)CN1CCOCC1)c1ccc2sc3c(-c4cccc5c(=O)cc(N6CC7CCC(C6)O7)oc45)cccc3c2c1", "note": "[NU5455]", "values": [
      {"measurement": "inhibition at 1 µM", "result": 10.4, "unit": "%"}
    ]}
  ]
}
